Counter-ions that a name gives are not always drawn.
Tests used:
[1] = initial measurement of the pH of the solution; format: physicochemical
[2] = tested on: atopic asthmatic patients; settings: aerosol; bronchospasms induced by physical exercises, ultrasonic fogs and immunological stimulations; 10 mg/ml sodium salt solution inhaled for 15 to 20 minutes; cited from earlier work

| pH (initial measurement) ([1]; Sol. 1, water, 97.2 mg/ml) | pH (initial measurement) ([1]; Sol. 2, physiol. sol., 184.4 mg/ml) | pH (initial measurement) ([1]; Sol. 3, water, 275.3 mg/ml) | pH (initial measurement) ([1]; Sol. 4, water, 125.0 mg/ml, kept at 60° C.) | pH (initial measurement) ([1]; Sol. 5, water, 125.0 mg/ml, kept at 25° C. away from the light) | pH (initial measurement) ([1]; Sol. 6, water, 90.4 mg/ml) | pH (initial measurement) ([1]; Sol. 7, water containing 4% by weight of mannitol, 72.1 mg/ml) | SMILES | prevention of bronchospasms [2] |
| --- | --- | --- | --- | --- | --- | --- | --- | --- |
| 7.00 | 7.09 | 7.32 | 7.06 | 7.06 | 6.95 | 7.06 | NS(=O)(=O)c1cc(C(=O)O)c(NCc2ccco2)cc1Cl [furosemide salt of L-lysine, L-lysine salt of furosemide] | – |
| – | – | – | – | – | – | – | NS(=O)(=O)c1cc(C(=O)O)c(NCc2ccco2)cc1Cl [furosemide, 4-chloro-N-furyl-5-sulfamoyl-anthranylic acid] | prevent bronchospasms |

— patent US5182300A, “Furosemide salts” (Roussel Uclaf, priority 1989, dated 1993)
